Experimental data reported in US11357776B2, “Pharmaceutical combinations comprising a histone deacetylase inhibitor and an aurora kinase inhibitor and methods of use thereof” (ACETYLON PHARMACEUTICALS, INC., priority 2016, dated 2022).

Experiments:
[1] = system: Jeko-1 mantle cell lymphoma, SU-DHL-4 B cell lymphoma, and Jurkat T cell lymphoma cells; experiment: Annexin V / propidium iodide flow cytometry apoptosis assay; format: cell-based; settings: 72 hours; 3 μM Compound B, 0.01 or 0.03 μM alisertib, alone or combined; single-agent effect in some cell lines only
Protocol: To test for induction of apoptosis, Jeko-1 mantle cell lymphoma, SU-DHL-4 B cell lymphoma, and Jurkat T cell lymphoma cells were treated for 72 hours with either: DMSO, 3 μM of Compound B, 0.01 μM of alisertib, 0.03 μM of alisertib, or a combination of both Compound B and alisertib for 72 hrs. Cells were then harvested and stained with Annexin V, which recognizes an epitope on cells in the early stages of apoptosis. Cells were also stained with propidium iodide, which is excluded from cells with intact membranes, thus marking only dead cells. Flow cytometry analysis was then performed to measure the number of healthy and apoptotic cells under each treatment condition.

[2] = system: Jurkat T cell lymphoma cells; experiment: as above; format: cell-based; settings: 72 hours, 3 μM Compound A or B, 0.01 μM alisertib, alone or combined
Protocol: To determine the extent that the combination therapies of Compound A/alisertib and Compound B/alisertib promote induction of apoptosis, Jurkat T cell lymphoma cells were treated with: DMSO, 3 μM of Compound B, 3 μM of Compound A, 0.01 μM of alisertib, a combination of Compound B/alisertib, or a combination of Compound A/alisertib, for 72 hours. Cells were then harvested and stained with Annexin V and propidium iodide as above. Flow cytometry analysis was then used to measure the number of healthy and apoptotic cells under each treatment condition.

[3] = system: aurora kinase; settings: aurora kinase isoform selectivity, Choudary et al. 2015; cited from earlier work
[4] = system: survivin, Aurora A, Aurora B, BubR1, CDC20 and MAD2L1 gene transcripts in H929 MM, U266 MM and Jeko-1 MCL cell lines; experiment: qPCR analysis of mitotic regulator downregulation across MM and MCL cell lines; format: cell-based; settings: U266 MM and Jeko-1 MCL cells
Protocol: Independent qPCR validation of mitotic regulator downregulation by Compound A across MM and MCL cell lines was performed using H929 MM, U266 MM and Jeko-1 MCL cell lines. The cells were treated with Compound A. Total RNA was extracted and gene expression was measured by quantitative polymerase chain reaction (PCR) analysis.

[5] = system: survivin, Aurora A, Aurora B, BubR1, CDC20 and MAD2L1 gene transcripts in H929 multiple myeloma cells; experiment: Microarray gene expression profiling of H929 cells; format: cell-based; settings: H929 cells, 2, 3, or 4 μM, 24 hours or 48 hours, Affymetrix microarray
Protocol: Microarray gene expression profiling was performed in H929 multiple myeloma (MM) cells to determine whether key mitotic regulators are down regulated by […]. H929 multiple myeloma cells were treated for 24 hours or 48 hours with 2, 3, or 4 μM of Compound A. Total RNA was extracted from the cells and subjected to gene expression profiling using an Affymetrix microarray system (Santa Clara, Calif.).

Structure (SMILES) | percentage of cells undergoing apoptosis [2] | Selectivity [3] | other results
O=C(CCCCCCNC(=O)c1cnc(N(c2ccccc2)c2ccccc2Cl)nc1)NO [Compound B, 2-((2-chlorophenyl)(phenyl)amino)-N-(7-(hydroxyamino)-7-oxoheptyl)pyrimidine-5-carboxamide] | minimal induction of apoptosis |  | percentage of cells undergoing apoptosis [1]: some induction of apoptosis
COc1cc(Nc2ncc3c(n2)-c2ccc(Cl)cc2C(c2c(F)cccc2OC)=NC3)ccc1C(=O)O [Alisertib] | minimal induction of apoptosis | Aurora A | percentage of cells undergoing apoptosis [1]: some induction of apoptosis
Cc1cc(Nc2ncc(F)c(N[C@H]3[C@@H](C(N)=O)[C@@H]4C=C[C@H]3C4)n2)ccc1N1CCN(C)CC1 [MSC 1992371A] |  | Pan | 
CCN(CCCOc1ccc2c(Nc3cc(CC(=O)Nc4cccc(F)c4)[nH]n3)ncnc2c1)CCOP(=O)(O)O [Barasertib] |  | Aurora B | 
Cc1cc(Nc2cc(N3CCN(C)CC3)nc(/C=C/c3ccccc3)n2)n[nH]1 [ENMD- 2076] |  | Aurora A | 
O=C(Nc1c[nH]nc1-c1nc2cc(CN3CCOCC3)ccc2[nH]1)NC1CC1 [AT-9283] |  | Aurora A and Aurora B | 
Cc1cc(Nc2cc(N3CCN(C)CC3)nc(Sc3ccc(NC(=O)C4CC4)cc3)n2)[nH]n1 [Tozasertib] |  | Pan | 
CO[C@@H](C(=O)N1Cc2[nH]nc(NC(=O)c3ccc(N4CCN(C)CC4)cc3)c2C1)c1ccccc1 [Danusertib] |  | Pan | 
O=C(O)[C@]1(Cc2cccc(Nc3nccs3)n2)CC[C@@H](Oc2cccc(Cl)c2F)CC1 [MK-5108] |  | Aurora A | 
O=C(CCCCCCNC(=O)c1cnc(N(c2ccccc2)c2ccccc2)nc1)NO [Compound A, 2-(diphenylamino)-N-(7-(hydroxyamino)-7-oxoheptyl)pyrimidine-5-carboxamide] | minimal induction of apoptosis |  | expression of key mitotic regulatory genes (relative to RPLP1, vs DMSO) [4]: reduced the expression; expression of key mitotic regulatory genes (relative fold induction vs DMSO) [5]: reduced the expression
